Test results: PubChem BioAssay (NCI)
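Results reflect a 48-hour exposure of cells in 96-well plates to compound at five concentrations. TGI: total growth inhibition.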

How the values were obtained:
Experiment in all cases: growth of human tumour cells (NCI), 48 h
A498 renal = test system: A498 renal
CCRF-CEM leukemia = test system: CCRF-CEM leukemia
HCC-2998 colon = test system: HCC-2998 colon
HS 578T breast = test system: HS 578T breast
HT29 colon = test system: HT29 colon
MALME-3M melanoma = test system: MALME-3M melanoma
MDA-MB-231 breast = test system: MDA-MB-231 breast
MOLT-4 leukemia = test system: MOLT-4 leukemia
NCI-H226 lung = test system: NCI-H226 lung
NCI-H522 lung = test system: NCI-H522 lung
OVCAR-3 ovarian = test system: OVCAR-3 ovarian
SF-539 CNS = test system: SF-539 CNS
SK-MEL-28 melanoma = test system: SK-MEL-28 melanoma
SK-OV-3 ovarian = test system: SK-OV-3 ovarian
SNB-75 CNS = test system: SNB-75 CNS
SW-620 colon = test system: SW-620 colon
SK-MEL-2 melanoma = test system: SK-MEL-2 melanoma

Row | Compound | TGI (A498 renal) [µM] | TGI (CCRF-CEM leukemia) [µM] | TGI (HCC-2998 colon) [µM] | TGI (HS 578T breast) [µM] | TGI (HT29 colon) [µM] | TGI (MALME-3M melanoma) [µM] | TGI (MDA-MB-231 breast) [µM] | TGI (MOLT-4 leukemia) [µM] | TGI (NCI-H226 lung) [µM] | TGI (NCI-H522 lung) [µM] | TGI (OVCAR-3 ovarian) [µM] | TGI (SF-539 CNS) [µM] | TGI (SK-MEL-28 melanoma) [µM] | TGI (SK-OV-3 ovarian) [µM] | TGI (SNB-75 CNS) [µM] | TGI (SW-620 colon) [µM] | TGI (SK-MEL-2 melanoma) [µM]
1 | Oc1cccc2ccc(Br)nc12 | > 100 | > 100 | > 100 | > 100 | > 100 | > 100 | > 100 | > 100 | > 100 | > 100 | > 100 | > 100 | > 100 | > 100 | > 100 | > 100 | 
2 | Cc1ccc(S(=O)(=O)NNC(=O)Nc2ccc([N+](=O)[O-])cc2)cc1 | > 100 | > 100 | > 100 | > 100 | > 100 | > 100 | > 100 | > 100 | > 100 | > 100 | 78.2 | > 100 | > 100 |  | > 100 | > 100 | > 100
3 | COC(=O)[C@@H]1[C@H]2CC[C@]3(C)[C@@H](OC(C)=O)CC[C@H]3[C@@H]2CC[C@H]1C(C)=O | > 100 | > 100 | > 100 | > 100 | > 100 | > 100 | > 100 | > 100 | > 100 | > 100 | > 100 | > 100 | > 100 | > 100 | > 100 | > 100 | > 100
4 | N#Cc1c(N)c2c(c(-c3ccccc3)c1-c1ccccc1)C(=O)N(O)C2=O | > 100 | > 100 | > 100 | 99.6 |  | > 100 | > 100 | > 100 | 62.8 | > 100 | > 100 | > 100 | > 100 |  | > 100 | > 100 | > 100
5 | COc1ccc(NC(/C(C(=O)C(=O)/C=C(\O)c2ccccc2)=C(\O)c2ccccc2)c2ccc(OC)cc2)cc1 (centres undefined) | > 100 | > 100 | 62.3 | > 100 | > 100 | 75.6 | > 100 | > 100 | > 100 | 50.5 | 94.1 | > 100 | > 100 | > 100 | 51.9 |  | 89
6 | COC1(OC)C2C=CC1C([C@](C)(N)CO)C2 (some centres undefined) | > 100 | > 100 | > 100 | > 100 | > 100 | > 100 | > 100 | > 100 | > 100 | > 100 | > 100 | > 100 | > 100 | > 100 | > 100 | > 100 | 
7 | O=C(NCCN(CCNC(=O)c1cccc(=O)n1O)CCNC(=O)c1cccc(=O)n1O)c1cccc(=O)n1O | > 100 | > 100 | > 100 | > 100 | > 100 | > 100 | > 100 |  | > 100 | > 100 | > 100 | > 100 | > 100 | > 100 | > 100 | > 100 | > 100
8 | CC1(C)CCC[C@@]2(C)C1CC[C@@]1(CO1)[C@@H]2/C=C\C(C=O)CC=O (some centres undefined) | > 100 | > 68.7 | > 100 | > 100 | > 100 | > 100 | > 100 | 62.2 | > 100 | > 100 | > 100 | > 100 | > 100 | > 100 | > 100 | > 100 | > 100
9 | N#CC(C#N)=Cn1c(=S)[nH]c2ccc([N+](=O)[O-])cc21 | > 100 | > 100 | > 100 | > 100 | > 100 | > 100 | > 100 | > 100 | > 100 | > 100 | > 100 | > 100 | > 100 | > 100 | > 100 | > 100 | > 100
10 | COC(=O)c1cc2c(cc1C(=O)OC)[C@@]1(C)CCCC(C)(C)C1CC2 (some centres undefined) | 32.4 | 42.1 | 34.4 | 44.9 | 58.2 | 15.3 | 41.8 | > 100 | 33.8 | 41.5 | 25 | 95.7 | > 100 |  | 82.1 | 42.2 | 46.7
11 | COc1cc2c(cc1O)C(=O)O[C@@H]1CC=C3CCN(C)[C@H]3[C@H]21 | > 25 | > 25 | > 25 | > 25 | > 25 | > 25 | > 25 | > 25 | > 25 | > 25 | > 25 |  | > 25 | > 25 | > 25 | > 25 | > 25
12 | Cn1c(N)c(/C=C/C(=O)Oc2ccccc2)c(=O)n(C)c1=O | > 100 | > 100 | > 100 | > 100 | > 100 | > 100 | > 100 | > 100 | > 100 | > 100 | > 100 | > 100 | > 100 | > 100 | 66.5 | > 100 | > 100
13 | COc1cc(C(=O)OC2CC34CCNC35CC(OC5(OC)C2O)c2cc3c(cc24)OCO3)ccc1O (centres undefined) | > 100 | > 100 | > 100 | > 100 | > 100 | > 100 | > 100 | > 100 | > 100 | > 100 | > 100 | > 100 | > 100 | > 100 | > 100 | > 100 | > 100
14 | COc1cc(-c2ccccc2)cn2c1nc1ccccc12 |  | 70.7 | 33.7 | 71.4 | 35.5 | 41.9 | 49.8 | 45.9 | 39.7 | 40.6 | 40.8 | 50.4 | 33.2 | 59.7 | 43.2 | > 100 | 44
15 | O=c1[nH]c(=O)n(C2CC(O)C(COP(=O)(OCC(Cl)(Cl)Cl)OCC(Cl)(Cl)Cl)O2)cc1F (centres undefined) |  | > 100 | 1.62 | > 100 | > 100 | > 100 | > 100 | > 100 | > 100 | > 34.8 | > 100 |  | > 100 | > 100 | > 100 | > 100 | > 100
16 | C=CCN1C(=O)CS/C1=N\NC(=O)CSc1nc2ccccc2c(=O)n1CC | > 100 | > 100 | > 100 | > 100 | > 100 | > 100 | > 100 | > 100 | > 100 | > 100 | > 100 | > 100 | > 100 | > 100 | > 100 | > 100 | > 100
17 | COc1ccc(C2=NN(C(=O)c3ccc(Cl)cc3)C(O)(c3cc(F)c(Cl)cc3Cl)C2)cc1 (centres undefined) | > 100 | > 100 | > 100 | > 100 | > 100 | > 100 | > 100 | > 100 | > 100 | > 100 | > 100 | > 100 | > 100 | > 100 | > 100 |  | > 100
18 | c1ccc(COC[C@H]2C3OCC([C@H](OCc4ccccc4)[C@H]3OCc3ccccc3)N2Cc2ccccc2)cc1 (some centres undefined) | > 100 | > 100 | > 100 | > 100 | > 100 | > 100 | > 100 | > 51.7 | > 100 | > 82 | > 100 | > 100 | > 100 | > 100 | > 100 | > 100 | > 100
19 | CCOC(=O)CCc1ccc(NC(=O)/C=C/c2ccc([N+](=O)[O-])o2)cc1 | 7.27 | 0.957 | 7.61 | > 100 | 3.43 | 3.14 | 3.94 | 0.547 | 25.5 | 0.548 | 2.88 | 3.99 | 3.39 | > 100 | 11.2 | 2.31 | 4.82
20 | COc1cccc(CCn2c(N)c(C#N)c3ccc([N+](=O)[O-])cc3c2=O)c1 | > 100 | > 31.6 | > 46.4 | > 46.4 | > 31.6 | > 31.6 | > 46.4 | > 31.6 | > 31.6 |  | > 31.6 |  | > 100 | > 31.6 | > 46.4 | > 100 | > 46.4
21 | Cc1ccc(CN2CCN(Cc3ccc(C)o3)C(C)C2)o1 (centres undefined) | > 100 | > 100 | > 100 | > 100 | > 100 | > 100 | > 100 | > 100 | > 100 | > 100 | > 100 | > 100 | > 100 | > 100 | > 100 | > 100 | > 100
22 | NC(=O)NC(=O)c1cccc(NC(=O)CCl)c1 | 6.39 | 4.16 | 1.81 | > 21.7 | 7.37 | > 48.1 | 8.38 | 15.4 | 5.28 | 3.32 | 1.44 | 1.5 | > 62.2 | 8.88 | 7.06 | 18.9 | 15.1
23 | S=C1Cc2c(-c3ccccc3)cc(-c3ccc(Cl)cc3)nc2-c2ccccc2N1 | 4.27 | > 100 | > 36.8 | 4.23 | 15.2 | 13 | 5.22 | > 100 | > 31.9 | > 24.2 | 9.9 | 10.8 | > 31.9 | 7.26 | 3.14 | 11.6 | 20.9
24 | CC12CCC(=O)[C@@]1(C)CCCC2O (some centres undefined) |  | > 100 | > 100 | > 100 | > 100 | > 100 | > 100 | > 100 | > 100 | > 100 |  | > 100 | > 100 | > 100 | > 100 | > 100 | > 100
25 | COc1cc(OC)nc(-n2c(N)c(C(=O)O)c3ccc([N+](=O)[O-])cc3c2=O)n1 | > 100 | > 100 | > 100 | > 100 | > 100 | > 100 | > 100 | > 100 | > 100 | > 100 | > 100 |  | > 100 | > 100 | > 100 | > 100 | > 100
26 | COc1ccc(NC(=O)NNS(=O)(=O)c2ccc(C)cc2)cc1 | > 100 | > 100 | > 100 | > 100 | > 100 | > 100 | > 100 | > 100 | > 100 | > 100 |  | > 100 | > 100 | > 100 | > 100 | > 100 | > 100
27 | Cc1nn(C(=O)c2ccc(Cl)cc2)c2c1C(c1ccc(Cl)cc1)SC(N)=N2 (centres undefined) |  | > 10 | > 10 | > 10 | > 10 | > 10 | > 10 | > 10 | > 10 | > 10 | > 10 | > 10 | > 10 | > 10 | > 10 | > 10 | > 10
28 | CC(C)CC1NC(=O)CCC(NC(=O)C(Cc2ccc(O)cc2)NC(=O)OCc2ccccc2)C(=O)NC(Cc2ccccc2)C(=O)NC(Cc2ccccc2)NC1=O (centres undefined) |  | > 100 | > 100 | > 100 | > 100 | > 100 | > 100 | > 100 | > 100 |  | > 100 | > 100 | > 100 | > 100 | > 100 | > 100 | > 100
